According to patent publication US11612601B1, “Targeting epidermal growth factor to treat vascular calcification” (THE FLORIDA INTERNATIONAL UNIVERSITY BOARD OF TRUSTEES, priority 2022, dated 2023):

What was measured:
CKD mice [1] = assay: Serum EGFR level and serum TNAP activity in CKD mice; format: in vivo, mouse; settings: 10 mg/kg daily, vs CKD
Procedure: Along with this calcifying diet, a group of mice (n=19) received daily tyrphostin AG1478 (10 mg/kg mouse, Millipore Sigma, T4182) via oral gavage. The remaining mice (n=19) received vehicle treatment (1% w/v, carboxymethylcellulose sodium salt, Sigma, C5678). For non-diseased controls, a third group of mice (n=12, 6 per biological sex) were fed a regular chow diet and received the vehicle for the final two weeks. During the oral gavage, animals were partially anesthetized using isoflurane (1%, Patterson Veterinary, 07-893-1389, in 2 L.min^−1 oxygen flow). […] At study endpoint, mice were anesthetized with isoflurane (1%, in 2 L.min^−1 oxygen flow) followed by retro-orbital bleeding for blood collection. Mice were then immediately euthanized by laceration of the diaphragm before tissue collection. […] For mice serum TNAP activity, the samples were diluted 1:20 and assessment was performed according to the manufacturer's protocol.

CKD mice [2] = assay: Femur X-ray CT bone thickness and bone volume fraction in CKD mice; format: in vivo, mouse
Procedure: Femurs were dissected from mice, wrapped in parafilm and imaged directly in a Nikon XT H 225 scanner (macro-CT, Nikon Metrology, Tring, UK). The raw transmission images were reconstructed using commercial image reconstruction software package (CT Pro 3D, Nikon Metrology, Tring, UK), which employs a filtered back-projection algorithm. The scan was performed using 80 kV beam energy, 70 μA beam current, and a power of 5.6 W. A PerkinElmer 1620 flat panel detector was used, with 200 μm pixel size. The resulting effective pixel size was 5 μm. The exposure time per projection was 0.5 s, and a total of 1601 projections were acquired, resulting in a scanning time of approximately 13 minutes per sample. Bone structural parameters, including thickness and volume fraction (the ratio of bone volume (BV) to total volume (TV)), for both cortical and trabecular regions were assessed using a plug-in module, BoneJ, in ImageJ (NIH, USA).

[3] = tested on: Primary human coronary artery vascular smooth muscle cells; assay: VSMC intracellular and cytosolic CAV1, EGFR, TNAP (immunoblot, activity assay, confocal); format: cell-based; settings: OS + 2.5 μM, 14 days
[4] = tested on: Primary human coronary artery vascular smooth muscle cells; assay: EVs isolated from VSMC cultures: protein immunoblot and TNAP activity; format: cell-based
Procedure: To assess the role of EGFR inhibition, tyrphostin AG1478 (Millipore Sigma, T4182) was dissolved in vehicle (DMSO:Methanol, 1:1) and added to OS media to a final concentration of 2.5 μM. An equal volume of vehicle was added to the control and OS groups. It shown that 28 days in OS culture media led to robust calcification by VSMCs; therefore, all cultures (n=3, independent donors, male and female) were treated for 28 days and media were replaced every three days. On days 6, 13, 20, and 27 the media were replaced by an extracellular-vesicle-free (EV-free) media (ultracentrifuged for 15 hours at 100,000×g at 4° C. to remove background EVs common in the serum). After 24 hours, conditioned media were collected on days 7, 14, 21, and 28. Collected media were centrifuged at 1,000×g for 5 min to remove cell debris. EV isolation was performed using ultracentrifugation (Beckman Coulter, Optima MAX-TL) at 100,000×g for 1 hour.
For EV TNAP activity measurement, after ultracentrifugation at 100,000×g for 1 hour, the pellets were re-suspended in 120 μL buffer assay. The assessment was performed using the same assay protocol described for intracellular TNAP activity and the results were normalized to the total protein for each sample. For mice serum TNAP activity, the samples were diluted 1:20 and assessment was performed according to the manufacturer's protocol.
VSMCs, osteoblasts, isolated EVs (either from cells or mouse aortas), and matrix vesicles (from osteoblasts) were lysed in RIPA lysis and extraction buffer supplemented with protease inhibitor. After adding Laemmli SDS-sample buffer (1:4 v/v, Boston BioProducts, BP-110R) to each lysate, the samples were denatured at 100° C. for 10 min, loaded into 7.5-12% 1-mm SDS-PAGE gel (15 to 20 μg protein per lane), and run at 170 V. The proteins were then transferred to Trans-Blot turbo nitrocellulose membranes (BIO-RAD, 1704158) at 25 V for 7 min.
To quantify the total protein, the membranes were stained using 2% w/v Ponceau stain (Alfa Aesar, AAJ6074409) for 20 min, followed by one wash with 5% acetic acid and milliQ water for 5 min. After imaging, the intensity of each lane was measured in ImageJ for total protein normalization. Membranes were blocked with 5% w/v bovine serum albumin (HyClone, SH30574.01) in TBS-Tween (1×) for 1 hour. The membranes were incubated with primary antibodies of interest, including CAV1 (1:200, Abcam, ab2910), TNAP (1:200, Invitrogen, 702454), EGFR ([…], EMD Millipore, 06-874), CD63 (1:200, Abeam, ab231975), GAPDH (1:100, Abcam, ab181602), and Annexin V (1:200, proteintech, 11060-1-AP) overnight at 4° C. After three washes with TBS-Tween (1×), the membranes were incubated with secondary antibody (1:1000, Li-Cor) for 1 hour, followed by three washes with TBS-Tween (1×). The protein bands were visualized with Odyssey CLx scanner (Li-Cor), and quantified using Image Studio Lite software (Li-Cor).

Osteoblasts (hFOB 1.19) = assay: In vitro calcification of osteoblasts, Alizarin Red S staining; format: cell-based, human; settings: OS + 2.5 μM vs OS, 21 days; p=0.86
Procedure: Osteoblasts (from human fetus, hFOB 1.19, ATCC, CRL-11372) were cultured and grown in DMEM containing 10% v/v bovine calf serum and 1% v/v penicillin-streptomycin. Osteoblasts (passage 4-6) were harvested using 0.25% trypsin-EDTA solution (Caisson Labs, TRL01), seeded with a density of 5,200 cell.cm^−2, and incubated for 24 hours at 37° C. and 5% CO2 with controlled humidity. The cells were treated in three groups of control, OS, and OS supplemented with tyrphostin AG1478 (2.5 μM) for 21 days and media changed every three days. […] Similar to the VSMC experiments, EV-free media were added to the cultures on days 6, 13, and 20, and collected 24 hours later on days 7, 14, and 21. Collected media were centrifuged at 1,000×g for 5 min to remove cell debris. EVs were isolated using the ultracentrifugation at 100,000×g for 1 hour.
At the end of experiments (28 and 21 days of treatment on VSMCs and osteoblasts, respectively), media were removed, and the cells were fixed using Formalin (10%, Fisher Chemical, SF100). To visualize in vitro calcification, Alizarin Red S stain (ARS, Ricca, 500-32) was added to the wells and incubated for 30 min at room temperature. […]
To quantify the in vitro calcification, ARS stain was extracted using acetic acid (1.67 M, Fisher Chemical, A38S) on a shaker. […] Sample absorbance of 405 nm was measured using a multi-mode reader (BioTek, Synergy HTX).

SMILES: COc1cc2ncnc(Nc3cccc(Cl)c3)c2cc1OC [AG1478, tyrphostin AG1478]
- serum TNAP activity (CKD mice [1]; p=0.06): did not significantly reduce
- level of serum EGFR (CKD mice [1]; p=0.78): no significant difference
- thickness of cortical bone (CKD mice [2]; CKD mice treated vs CKD, p=0.004): increased
- thickness of trabecular bone, metaphysical region (CKD mice [2]; CKD mice treated vs CKD, p=0.02): increased
- thickness of trabecular bone, epiphyseal region (CKD mice [2]; CKD mice treated vs CKD, p=0.04): increased
- bone volume fraction in trabecular bone, metaphysical region (CKD mice [2]; compared to CKD animals, p=0.002): increased
- bone volume fraction in trabecular bone, epiphyseal region (CKD mice [2]; compared to CKD animals, p=0.009): increased
- bone volume fraction in cortical bone (CKD mice [2]; compared to CKD animals, p=0.25): did not significantly change
- intracellular TNAP activity in VSMCs ([3]; compared to control): elevated
- cytosolic TNAP in VSMCs ([3]; compared to control (p=0.003) and OS (p=0.005)): elevated
- cytosolic CAV1 in VSMCs ([3]; compared to control (p=0.02) and OS (p=0.04)): elevated
- total level of intracellular CAV1 in VSMCs ([3]; compared to control group): significantly increased
- intracellular EGFR protein in VSMCs ([3]; p=0.84): prevented the OS-induced increase
- level of CD63 on EVs from VSMCs ([4]; 28 days of culture, across in vitro groups, p=0.9): preserved
- level of Annexin V on EVs from VSMCs ([4]; OS + 2.5 μM, day 28): reduced levels
- level of EGFR on EVs from VSMCs ([4]; OS + 2.5 μM, day 28): reduced levels
- EV TNAP activity (VSMC cultures) ([4]; OS + 2.5 μM, days 14, 21, 28): reduced
- release of CAV1-positive EVs by VSMCs ([4]; OS + 2.5 μM, days 14, 21, 28): reduced
- CD63 protein within EVs from vascular SMCs ([4]; pro-calcific media + 2.5 μM, 14 days, vs control and pro-calcific media): no differences
- quantification of the in vitro calcification of osteoblasts (Alizarin red) (Osteoblasts (hFOB 1.19)): no significant difference
